US20210228500A1, “CELLULAR RETINOID BINDING PROTEIN ANTAGONISTS AND USES THEREOF” (CASE WESTERN RESRVE UNIVERSITY, priority 2018, published 2021)
“Also recorded” adds a separate entry of the source.

Key:
Balb/cJ mice [1] = assay: Electroretinography (ERG) after photobleach; assay type: in vivo; details: 30 mg kg^−1; scotopic ERG 4 h after flash of light
Protocol: Before the ERG recording, dark-adapted Balb/cJ mice were anesthetized with 20 mg mL^−1 ketamine and 1.75 mg mL^−1 xylazine in PBS at a dose of 0.1-0.13 mL per 25 g of body weight, and pupils were dilated with 1% tropicamide. Contact lens electrodes were placed on the eyes, and a reference electrode was positioned between two ears, while ground electrode was placed on the tail. Scotopic ERGs were recorded for both eyes of each mouse using a UTAS E-3000 universal testing and ERG system (LKC Technologies).
To quantify the effect of the CRBP1 inhibitor on the recovery of visual sensitivity after a light stimulus, we measured full-field electroretinography (ERG) responses in mice. Prior to the illumination, the animals were either treated with DMSO (vehicle) or abn-CBD. Both drugs were administrated in a dose of 30 mg kg^−1. Scotopic ERG responses at varying light intensities were recorded 4 h after the exposure to a flash of light that photobleached ˜50% of the visual pigment. […] However, even in a relatively high dose used in this experiment, the inhibitor of CRBP1 had much smaller impact on the visual cycle without causing its blockage, as it was reported for retinylamine and emixustat.

LRAT = biological target: T1, LRAT (Bos taurus, UniProt Q9BGL2); assay: Retinol esterification assay; assay type: biochemical; details: bovine RPE microsomes preincubated with 10-50 μM
T1 construct: from tissue; host or cells: bovine RPE microsomes
T1 sequence (Q9BGL2 1-230): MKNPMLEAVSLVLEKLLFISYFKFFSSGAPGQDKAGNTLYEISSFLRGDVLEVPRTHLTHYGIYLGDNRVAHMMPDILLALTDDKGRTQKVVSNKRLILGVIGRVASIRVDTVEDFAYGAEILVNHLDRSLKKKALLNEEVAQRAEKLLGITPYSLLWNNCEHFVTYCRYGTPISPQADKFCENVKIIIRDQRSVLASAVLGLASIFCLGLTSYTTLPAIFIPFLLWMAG
Protocol: The enzymatic activity of LRAT was assayed using isolated UV-treated bovine RPE microsomes as described previously. The reaction mixture included 20 mM Tris/HCl buffer, pH 7.4, 1 mM DTT, 1% bovine serum albumin (BSA; w/v), and RPE microsomes (˜100 μg of total protein) in the total volume of 0.1 mL. To test the influence of abn-CBD on the LRAT activity, 10, 20, or 50 μM of this compound was added prior to the addition of atROL (final concentration of 10 μM). To record the initial rate of the esterification, the mixture was incubated at RT for 5 min. The reaction was quenched with 0.2 mL of methanol, and the retinoids were extracted with 0.3 mL of hexane. The extracted retinoids were separated on a normal phase column (Agilent Zorbax Sil 5 μm 4.6×250 mm) in an isocratic flow of 10% ethyl acetate in hexane (flow rate of 1.5 mL min^−1). Elution of retinoids was monitored at 325 nm. All-trans-retinyl esters were quantified based on a correlation between the amount of injected synthetic standards and the area under chromatographic peaks.
Thus, to further probe the biological effect of this compound, we tested its effect on the key enzymes of the visual cycle. […]

Balb/cJ mice [2] = assay: Light-induced retinal degeneration (OCT, H&E histology); assay type: in vivo
Protocol: Retinal degeneration was induced by exposing dark-adapted Balb/cJ mice to white light with an intensity of ˜50 000 l×, delivered from a 100 W AC90-145 V lightemitting diode (LED) lamp (Home Depot) for 1 h. Abn-CBD in doses of 30, 15, or 7.5 mg kg^−1 was administered by i.p. injection in sterilized 80% DMSO/water (v/v) 1 h before exposure to bright light. […] Retinal morphology was analyzed in vivo by OCT 7 d after the light exposure. Then the mice were euthanized, and their eyes were subjected to staining with H&E staining and imaging.
To assess the effect of abn-CBD on light-induced retinal degeneration in Balb/cJ mice, the retinas were examined by ultrahigh resolution OCT (Bioptigen). Pupils of mice were first dilated with 1% tropicamide, and the animals were anesthetized with ketamine/xylazine cocktail. Twenty-five frames of OCT images scanned at 0° and 90° were acquired in the B-scan and averaged.
The structural morphology of mouse retinas challenged with bright light were assessed using H&E staining of paraffin sections. Mouse eyes were fixed in 4% paraformaldehyde and 1% glutaraldehyde followed by paraffin sectioning. Paraffin sections (5 μm thick) were stained with H&E and imaged by light microscopy (Leica).

C=C(C)[C@@H]1CCC(C)=C[C@H]1c1c(O)cc(O)cc1CCCCC [abn-CBD, 4-[(1R,6R)-3-Methyl-6-prop-1-en-2-ylcyclohex-2-en-1-yl]-5-pentylbenzene-1,3-diol]
recovery of a-wave and b-wave amplitudes (dark adaptation) (Balb/cJ mice [1]): slower; also recorded: slight delay in the dark adaptation | effect on enzymatic activity of LRAT (LRAT): did not cause a measurable decline | retinal histology (H&E) after light exposure (Balb/cJ mice [2]; 7 d post illumination): protective effect; also recorded: partial preservation of the photoreceptor cells | dose causing 50% of maximum effect (ED50), protection against light-induced retinal damage (Balb/cJ mice [2]; i.p. before bright light, OCT (ONL thickness) 7 d later, estimated): ~15 mg/kg | protection against light-induced retinal damage (OCT retinal morphology) (Balb/cJ mice [2]; i.p. before bright light, OCT a week later): largely protected; also recorded: protective effect
